The values below come from patent publication US20240368178A1, “IMIDAZOCYCLIC COMPOUND AND APPLICATION THEREOF” (DONGBAO PURPLE STAR (HANGZHOU) BIOPHARMACEUTICAL CO., LTD., priority 2021, published 2024).

The target of one data set is Human-GLP-1 receptor (Homo sapiens (Human), UniProt P43220). Kind of data set: In vitro cell activity assay (cAMP, HEK293 GLP-1 cells). The format is cell-based. The following applies: cAMP detection. Here is the method: Experimental Example 1: In Vitro Cell Activity Assay
Chain of Human-GLP-1 receptor (P43220 24-463): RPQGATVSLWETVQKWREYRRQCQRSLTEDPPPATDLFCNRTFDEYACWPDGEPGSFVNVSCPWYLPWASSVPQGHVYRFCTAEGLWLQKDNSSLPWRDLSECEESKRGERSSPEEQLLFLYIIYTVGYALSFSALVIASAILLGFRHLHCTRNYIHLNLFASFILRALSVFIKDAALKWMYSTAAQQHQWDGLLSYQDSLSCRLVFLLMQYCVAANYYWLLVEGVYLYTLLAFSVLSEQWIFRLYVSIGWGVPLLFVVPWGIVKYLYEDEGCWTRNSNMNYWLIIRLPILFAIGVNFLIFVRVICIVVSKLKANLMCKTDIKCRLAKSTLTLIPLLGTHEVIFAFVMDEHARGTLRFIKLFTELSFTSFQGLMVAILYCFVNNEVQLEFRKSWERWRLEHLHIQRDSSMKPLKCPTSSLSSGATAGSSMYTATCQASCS
The host cell HEK293 for GLP-1 was constructed by WuXi AppTec (Shanghai) Co., Ltd.
cAMP Detection Kit, Cisbio (Cat #62AM4PEJ); 1M HEPES, Invitrogen (Cat #15630-106); 1×HBSS, Invitrogen (Cat #14025); BSA, Sigma (Cat #B2064); IBMX, Sigma (Cat #I5879); Exenatide, Hao Yuan (HY-13443A).
The compounds were prepared into a working solution with a concentration of 30 μM using DMSO. In this assay, each sample was used in an amount of 5 μL.
• 24.5 mL of Hanks Buffer Saline Solution (HBSS), final concentration: lx; • 125 μL of HEPES 1M, final concentration: 5 mM; • 333 μL of 7.5% BSA Solution, final concentration: 0.1%; • 25 μL of IBMX 500 mmol/L, final concentration: 0.5 mmol/L.
Preparation of cAMP assay reagent: 250 μL of cAMP-D2 and 250 μL of anti-cAMP cryptate reagent were added to 4 mL of lysis buffer and mixed gently.
The compound to be tested was diluted 3-fold at 10 points with a starting concentration of 30 μM, and the dilution was completed using Bravo.
Exenatide, used as a control compound, was diluted 3-fold at 10 points with a starting concentration of 500 nM, and the dilution was completed using Bravo. […]
• 1) A GLP-1 cell cryopreservation tube was rapidly thawed in a 37° C. water bath. • 2) The cell suspension was transferred to a 15 mL Transfer centrifuge tube and gently rinsed with 10 mL of HBSS. • 3) The centrifuge tube was centrifuged at 1000 rpm for 1 minute at room temperature. • 4) The supernatant was discarded. • 5) The cells at the bottom were gently dispersed, then rinsed with 10 mL of HBSS, centrifuged to sedimentation, and finally resuspended in the experimental buffer. • 6) The cell density and activity were measured using Vi-cell. • 7) The concentration of GLP-1 cells was diluted to 2.0*105/mL with the experimental buffer. • 8) […] of the diluted cell suspension was transferred to the OptiPlate-384 plate. • 9) The plate was incubated at room temperature for 30 minutes. […]
TopSeal-A was removed and the result was read in EnVision.

The nature of data set [1]: In vivo PK parameter testing in cynomolgus monkeys. Also on record: species or system cynomolgus monkey. The following applies: male cynomolgus monkeys. The procedure: Male SD rats and male cynomolgus monkeys were used as test animals, and the plasma concentration of the compound was determined and the pharmacokinetic behavior was evaluated after a single oral administration.
Two groups of healthy male cynomolgus monkeys (fasted) were administered by intravenous injection and oral gavage, each group with 2 monkeys. The vehicle was a 20% hydroxypropyl-β-cyclodextrin aqueous solution. The compound to be tested 002 was mixed with the vehicle, then vortexed, and sonicated to prepare clear solutions of 1.0 mg/mL and 2.0 mg/mL. The intravenous injection dose was 1.0 mg/kg, and the oral gavage dose was 2.0 mg/kg. The compound to be tested 003 was mixed with the vehicle, then vortexed, and sonicated to prepare clear solutions of 0.25 mg/mL and 10.0 mg/mL. The intravenous injection dose was 0.5 mg/kg, and the oral gavage dose was 10.0 mg/kg. After administration, the whole blood was collected at the time points of 0.083 hours, 0.25 hours, 0.5 hours, 1.0 hour, 2.0 hours, 4.0 hours, 8.0 hours, 12.0 hours, and 24.0 hours. Plasma was prepared from the whole blood and analyzed for drug concentration by LC-MS/MS. Parameter meaning: Cmax is the maximum plasma concentration; AUC is the exposure; T1/2 is the half-life; Vd is the apparent volume of distribution; Cl is the clearance rate; F % is the oral bioavailability.

SMILES strings stand for the structures.

For orientation: EC50 means the midpoint of the concentration-response curve. One may read the Vd as the apparent volume that relates the amount in the body to the concentration in plasma or blood.

For the compound `C[C@]1(c2ccc(Cl)cn2)Oc2cccc(C3CCN(Cc4nc5sc(C(=O)O)cc5n4C[C@@H]4CCO4)CC3)c2O1` (single isomer, unassigned) [Compound 002], the midpoint of the response on Human-GLP-1 receptor, the EC50, lay at 0.88 nM. Besides, in data set [1] (IV 1.0 mg/kg, PO 2.0 mg/kg), the F % came out at 35.3%. Besides, in data set [1] (intravenous 1.0 mg/kg), the Cl was 0.505 mL/min/kg and the distribution volume (Vd) was 0.155 L/kg. Further, in data set [1] (oral gavage 2.0 mg/kg), the “AUC (PO)” value came to 42.966 µM·h and the “T1/2 (PO)” value turned out to be 11.3 h.
For the compound `C[C@@]1(c2ccc(Cl)cn2)Oc2cccc(N3CCN(Cc4nc5sc(C(=O)O)cc5n4C[C@H]4CCO4)CC3)c2O1` [Compound 003], the EC50 at Human-GLP-1 receptor was found to be 0.51 nM. The F % in data set [1] (IV 0.5 mg/kg, PO 10.0 mg/kg) is listed as 23.6%. Moreover, in data set [1] (intravenous 0.5 mg/kg), the Cl came to 2.85 mL/min/kg and the Vd is on record as 0.489 L/kg. In data set [1] (oral gavage 10.0 mg/kg), the “AUC (PO)” value came out at 10.716 µM·h and the “T1/2 (PO)” value is listed as 8.52 h.
